# Data: paper PMC6600370 (International Journal of Molecular Sciences, 2019)
# Experiments:
# [1] = molecular target: T1, Xanthine oxidase (from bovine milk) (Bos taurus, UniProt P80457); test: XO assay with 6-MP substrate (6-thiouric acid formation, HPLC); type: biochemical; details: for Effect on 6-TU formation at 20 μM: 20 μM test compound; for Effect on 6-TU formation at 3 μM: 3 μM test compound; for IC50 (6-MP)/IC50 (Xanthine): ratio of IC50 values, both substrates 5 μM; for Effect on 6-TU formation at 0.25 μM: 0.25 μM test compound
# T1 construct: Xanthine oxidase (from bovine milk); purchased Sigma-Aldrich; host or cells: bovine milk (natural source)
# Description: The incubations were carried out in 0.05 M sodium phosphate buffer (pH 7.5; final volume of incubates: 500 μL). The reaction started with the addition of the enzyme, and was stopped with 30 μL of 6 M HClO4 20, 40, or 60 min later. Thereafter, the samples were vortexed and centrifuged at 14,000× g for 5 min at room temperature. A 300-μL aliquot of the supernatant was carefully removed, after which 36 μL of 1 M KOH was added to these aliquots. Samples were cooled to 4 °C to enhance the precipitation of the formed KClO4, and centrifuged at 14,000× g for 5 min at 4 °C. The supernatants were carefully removed and the substrate together with metabolites were analyzed by HPLC (see details in Section 4.5). 6-MP is oxidized to 6-TX followed by 6-TU in the two-step reaction.
# Quantitation of 6-MP, 6-TX, and 6-TU was performed by the previously described method with minor modifications.
# [2] = molecular target: T1, Xanthine oxidase (from bovine milk); test: XO assay with xanthine substrate (uric acid formation, HPLC); type: biochemical; details: for Effect on uric acid formation at 20 μM: 20 μM test compound (four-fold vs. substrate); for Effect on urate formation at 10 μM: 10 μM flavonoid, 15 min preincubation, 8 min
# Description: Xanthine (5 μM) was incubated with 0.0012 U/mL XO in the absence or presence of inhibitors (0–20 μM). Incubations were started with the addition of the enzyme (final volume of incubates: 500 μL), and stopped after 4, 8, and 12 min with 30 μL of 6 M HClO4. Thereafter, the samples were vortexed, after which 97 μL of 1 M KOH was added, then samples were cooled to 4 °C and centrifuged. Other experimental conditions were the same as described in Section 4.2. Xanthine and uric acid were quantified by HPLC (see details in Section 4.5).
# (§1) Quantification of xanthine, hypoxanthine, and uric acid was performed by the previously described method with minor modifications.
# [3] = cited from earlier work; for Therapeutic peak plasma concentrations: single 200 mg oral dose of APU
# [4] = molecular target: T1, Xanthine oxidase (from bovine milk); test: XO assay with hypoxanthine substrate (xanthine + uric acid formation, HPLC); type: biochemical
# Description: The experiments were started with the addition of the enzyme and stopped after 4 min with 30 μL of 6 M HClO4. Other experimental conditions were the same as described in Section 4.3. XO-catalyzed oxidation of hypoxanthine results in the formation of xanthine and uric acid in two consecutive steps.
# as §1
# [5] = test system: XO; details: cited from earlier work
# [6] = cited from earlier work
# [7] = cited from earlier work; remark: listed apart in the source
# [8] = cited from earlier work; remark: listed apart in the source
# [9] = 5 μM 6-MP, 40 min incubation, 6-TU formation, read-out: 6-MP Oxidation IC50
# [10] = 5 μM xanthine, 8 min incubation, uric acid formation, read-out: Xanthine Oxidation IC50
# T1 sequence (P80457 whole entry): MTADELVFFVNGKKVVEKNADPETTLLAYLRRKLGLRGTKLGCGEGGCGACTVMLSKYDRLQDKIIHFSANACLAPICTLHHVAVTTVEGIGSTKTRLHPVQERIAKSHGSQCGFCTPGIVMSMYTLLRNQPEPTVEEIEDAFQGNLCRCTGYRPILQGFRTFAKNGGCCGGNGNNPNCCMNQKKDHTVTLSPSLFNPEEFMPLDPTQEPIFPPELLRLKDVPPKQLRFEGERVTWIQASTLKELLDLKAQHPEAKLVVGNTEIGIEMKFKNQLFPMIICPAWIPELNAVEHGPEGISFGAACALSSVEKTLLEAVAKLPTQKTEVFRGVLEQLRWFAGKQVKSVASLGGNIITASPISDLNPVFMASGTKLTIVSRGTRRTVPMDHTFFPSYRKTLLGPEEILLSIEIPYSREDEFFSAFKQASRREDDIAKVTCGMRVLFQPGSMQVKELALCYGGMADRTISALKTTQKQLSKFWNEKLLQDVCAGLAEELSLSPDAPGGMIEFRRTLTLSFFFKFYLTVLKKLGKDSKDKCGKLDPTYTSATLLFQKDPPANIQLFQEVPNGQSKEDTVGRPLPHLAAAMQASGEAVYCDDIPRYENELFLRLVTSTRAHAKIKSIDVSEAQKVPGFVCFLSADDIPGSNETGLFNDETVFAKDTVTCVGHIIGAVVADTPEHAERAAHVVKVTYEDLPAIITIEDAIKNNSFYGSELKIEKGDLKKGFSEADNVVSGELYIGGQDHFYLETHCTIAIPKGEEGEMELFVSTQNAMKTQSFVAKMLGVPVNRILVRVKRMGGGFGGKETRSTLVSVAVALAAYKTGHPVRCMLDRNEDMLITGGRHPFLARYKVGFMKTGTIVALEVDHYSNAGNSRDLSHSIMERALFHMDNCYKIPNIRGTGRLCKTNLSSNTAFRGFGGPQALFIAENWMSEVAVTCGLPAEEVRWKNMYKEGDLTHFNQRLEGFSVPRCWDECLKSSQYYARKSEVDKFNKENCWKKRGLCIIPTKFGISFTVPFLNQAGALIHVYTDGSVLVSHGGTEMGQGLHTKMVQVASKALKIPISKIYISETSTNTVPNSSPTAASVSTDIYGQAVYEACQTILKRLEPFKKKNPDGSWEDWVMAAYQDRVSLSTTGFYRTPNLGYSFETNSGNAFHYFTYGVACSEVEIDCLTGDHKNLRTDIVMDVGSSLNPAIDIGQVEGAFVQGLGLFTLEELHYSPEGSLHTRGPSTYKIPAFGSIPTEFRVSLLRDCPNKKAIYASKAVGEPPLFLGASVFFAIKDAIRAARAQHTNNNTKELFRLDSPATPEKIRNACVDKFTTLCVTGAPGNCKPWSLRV
compound,measurement,setting,value
"COc1ccc(C(=O)O)c(O)c1 [2H4MBA, 4-Methoxysalicylic acid]",Effect on 6-TU formation at 20 μM,[1]; 5 μM 6-MP,significant decreases
same,Effect on uric acid formation at 20 μM,[2]; 5 μM xanthine,inhibited of uric acid formation significantly
"O=C(O)Cc1ccccc1O [2HPAA, 2-Hydroxyphenylacetic acid]",Effect on 6-TU formation at 20 μM,[1]; 5 μM 6-MP,significant decreases
"O=C(O)/C=C/c1cccc(O)c1 [3CA, 3-Coumaric acid]",Effect on 6-TU formation at 20 μM,[1]; 5 μM 6-MP,significant decreases
"COc1ccc(CC(=O)O)cc1O [3H4MPAA, 3-Hydroxy-4-methoxyphenylacetic acid]",Effect on 6-TU formation at 20 μM,[1]; 5 μM 6-MP,significant decreases
"O=C(O)CCc1ccccc1 [3PPA, 3-Phenylpropionic acid]",Effect on 6-TU formation at 20 μM,[1]; 5 μM 6-MP,significant decreases
"O=C(O)c1ccc(O)cc1 [4HBA, 4-Hydroxybenzoic acid]",Effect on 6-TU formation at 20 μM,[1]; 5 μM 6-MP,significant decreases
"O=C(O)Cc1ccc(CO)cc1 [4HMPAA, 4-(Hydroxymethyl)phenylacetic acid]",Effect on 6-TU formation at 20 μM,[1]; 5 μM 6-MP,significant decreases
"O=C(O)Cc1ccc(O)cc1 [4HPAA, 4-hydroxyphenylacetic acid]",Effect on 6-TU formation at 20 μM,[1]; 5 μM 6-MP,significant decreases
"CC(=O)c1ccc(O)cc1O [24DHAP, 2,4-Dihydroxyacetophenon]",Effect on 6-TU formation at 20 μM,[1]; 5 μM 6-MP,significant decreases
"O=C(O)c1ccc(O)cc1O [24DHBA, 2,4-Dihydroxybenzoic acid]",Effect on 6-TU formation at 20 μM,[1]; 5 μM 6-MP,significant decreases
"O=C(O)CCc1cccc(O)c1 [33HPPA, 3-(3-Hydroxyphenyl)propionic acid]",Effect on 6-TU formation at 20 μM,[1]; 5 μM 6-MP,significant decreases
"O=C(O)CCc1ccc(O)cc1 [34HPPA, 3-(4-Hydroxyphenyl)propionic acid]",Effect on 6-TU formation at 20 μM,[1]; 5 μM 6-MP,significant decreases
"O=C(O)CCc1ccc(O)cc1O [324DHPPA, 3-(2,4-Dihydroxyphenyl)propionic acid]",Effect on 6-TU formation at 20 μM,[1]; 5 μM 6-MP,significant decreases
"Oc1ncnc2[nH]ncc12 [APU, Allopurinol, reference compound]",Effect on 6-TU formation at 3 μM,[1]; 5 μM 6-MP,only a slight effect
same,Therapeutic peak plasma concentrations,[3],35 to 40 µM
"O=C(O)c1ccccc1 [BA, Benzoic acid]",Effect on 6-TU formation at 20 μM,[1]; 5 μM 6-MP,significant decreases
"O=C(O)CNC(=O)c1ccccc1 [HIPA, Hippuric acid]",Effect on 6-TU formation at 20 μM,[1]; 5 μM 6-MP,significant decreases
"COc1cc(-c2oc3cc(O)cc(O)c3c(=O)c2OC2OC(C(=O)O)C(O)C(O)C2O)ccc1O (stereo not drawn) [I3G, Isorhamnetin-3-glucuronide]",IC50,[1]; [9],> 20000 nM
same,Effect on 6-TU formation at 20 μM,[1]; 5 μM 6-MP,did not inhibit
same,IC50,[2]; [10],> 20000 nM
same,Effect on uric acid formation at 20 μM,[2]; 5 μM xanthine,did not inhibit
"COc1cc(-c2oc3cc(O)cc(O)c3c(=O)c2O)ccc1O [IR, Isorhamnetin]",IC50,[1],600 nM
same,Effect on 6-TU formation at 3 μM,[1]; 5 μM 6-MP,almost completely inhibited
same,IC50 (6-MP)/IC50 (Xanthine),[1],0.86
same,IC50,[2],700 nM
same,Effect on urate formation at 10 μM,[2]; 5 μM xanthine,almost completely abolished
"O=c1[nH]c(=O)c2c[nH]nc2[nH]1 [Oxipurinol, oxipurinol, reference compound]",IC50,[1]; [9],10000 nM
same,IC50,[2]; [10],4500 nM
same,Therapeutic peak plasma concentrations,[3],35 to 40 µM
same,IC50,[4],> 3000 nM
"Oc1cccc(O)c1O [PYR, Pyrogallol]",IC50,[1]; [9],10100 nM
same,Effect on 6-TU formation at 20 μM,[1]; 5 μM 6-MP,significant decreases
same,inhibition at 20 µM,"[1]; 20 μM, 5 μM 6-MP, read-out: Inhibitory effect on 6-MP oxidation at 20 μM",> 50%
same,IC50 (6-MP)/IC50 (Xanthine),[1],5.61
same,IC50,[2]; [10],1800 nM
same,Effect on uric acid formation at 20 μM,[2]; 5 μM xanthine,inhibited of uric acid formation significantly
same,inhibition at 20 µM,"[2]; 20 μM, 5 μM xanthine, read-out: Inhibitory effect on xanthine oxidation at 20 μM",> 50%
"O=C(O)C1OC(Oc2c(-c3ccc(O)c(O)c3)oc3cc(O)cc(O)c3c2=O)C(O)C(O)C1O (stereo not drawn) [Q3G, Quercetin-3-glucuronide]",IC50,[1]; [9],> 20000 nM
same,Effect on 6-TU formation at 20 μM,[1]; 5 μM 6-MP,did not inhibit
same,IC50,[2]; [10],> 20000 nM
same,Effect on uric acid formation at 20 μM,[2]; 5 μM xanthine,did not inhibit
same,Inhibition of XO-catalyzed xanthine oxidation,[5],only weak inhibitors
"O=c1c(O)c(-c2ccc(O)c(OS(=O)(=O)O)c2)oc2cc(O)cc(O)c12 [Q3′S, Quercetin-3′-sulfate]",Effect on 6-TU formation at 0.25 μM,[1]; 5 μM 6-MP,significantly decreased
same,Effect on 6-TU formation at 3 μM,[1]; 5 μM 6-MP,almost completely inhibited
same,IC50,[1]; [9],500 nM
same,IC50 (6-MP)/IC50 (Xanthine),[1],1.25
same,IC50,[2]; [10],400 nM
same,Effect on urate formation at 10 μM,[2]; 5 μM xanthine,almost completely abolished
same,IC50,"[4]; 5 μM hypoxanthine, 4 min incubation, xanthine + uric acid formation, read-out: Hypoxanthine oxidation IC50",210 nM
"O=c1c(O)c(-c2ccc(O)c(O)c2)oc2cc(O)cc(O)c12 [Q, Quercetin]",Oral bioavailability,[6],low
same,Effect on 6-TU formation at 0.25 μM,[1]; 5 μM 6-MP,only weak inhibitory action
same,Effect on 6-TU formation at 3 μM,[1]; 5 μM 6-MP,almost completely inhibited
same,Effect on urate formation at 10 μM,[2]; 5 μM xanthine,almost completely abolished
same,Peak plasma concentrations of total Q,[3]; repeated daily oral administration of 1000 mg Q,low micromolar range
same,Serum urate levels in hyperuricemic mice,"[7]; 100 mg/kg, hyperuricemic mice",decreased the serum urate levels
same,Serum urate levels in normal or hyperuricemic mice,[7]; 400 mg/kg orally administered,failed to decrease the serum urate levels
same,"Serum uric acid levels, human",[8]; 1000 or 2000 mg/day,does not influence the serum uric acid levels
same,"Serum urate, human","[8]; four-week treatment, 500 mg/day",minimal reduction in serum urate
O=c1c(OS(=O)(=O)O)c(-c2ccc(O)c(O)c2)oc2cc(O)cc(O)c12 [Q-3-sulfate],Inhibition of XO-catalyzed xanthine oxidation,[5],inhibited XO only at very high concentrations
O=C(O)[C@H]1O[C@@H](Oc2cc(-c3oc4cc(O)cc(O)c4c(=O)c3O)ccc2O)[C@H](O)[C@@H](O)[C@@H]1O [Q-3′-glucuronide],Inhibition of XO-catalyzed xanthine oxidation,[5],similarly strong inhibitors of xanthine oxidation as Q
O=C(O)[C@H]1O[C@@H](Oc2ccc(-c3oc4cc(O)cc(O)c4c(=O)c3O)cc2O)[C@H](O)[C@@H](O)[C@@H]1O [Q-4′-glucuronide],Inhibition of XO-catalyzed xanthine oxidation,[5],similarly strong inhibitors of xanthine oxidation as Q
O=C(O)[C@H]1O[C@@H](Oc2cc(O)c3c(=O)c(O)c(-c4ccc(O)c(O)c4)oc3c2)[C@H](O)[C@@H](O)[C@@H]1O [Q-7-glucuronide],Inhibition of XO-catalyzed xanthine oxidation,[5],only weak inhibitors
"COc1ccc(-c2oc3cc(O)cc(O)c3c(=O)c2O)cc1O [TAM, Tamarixetin]",Effect on 6-TU formation at 0.25 μM,[1]; 5 μM 6-MP,significantly decreased
same,Effect on 6-TU formation at 3 μM,[1]; 5 μM 6-MP,almost completely inhibited
same,IC50,[1]; [9],200 nM
same,IC50 (6-MP)/IC50 (Xanthine),[1],1.00
same,IC50,[2]; [10],200 nM
same,Effect on urate formation at 10 μM,[2]; 5 μM xanthine,almost completely abolished
